Source: publication PMC6641592, “Deciphering Design Principles of Förster Resonance Energy Transfer-Based Protease Substrates: Thermolysin-Like Protease from Geobacillus stearothermophilus as a Test Case” (ACS Omega, 2018)
Like-named read-outs stand apart in the source and are kept apart here. AF647 = Alexa Fluor 647 (maleimide); CF = 5,6-carboxyfluorescein; Cy5 = Cy5 (maleimide)

Assays:
TLP-ste (C288L/N181C) = TLP-ste (C288L/N181C) (Geobacillus stearothermophilus, UniProt P06874, C520L/N413C); conditions: for increase of kcat with peptide length: 8aa substrate relative to 4aa substrate with the same acceptor; for Km / vmax: Michaelis-Menten fit, mean ± SD, triplicate; for vmax: MOPS pH 7.4, 10% DMSO; for kcat/KM: calculated from kcat and KM
[1] = after complete hydrolysis with 1 nM TLP-ste, >16 h room temperature; MOPS buffer, 10% DMSO; λex 450/λem 520 nm
TLP-ste = TLP-ste (Geobacillus stearothermophilus, UniProt P06874, C520L/N413C); conditions: product 0–20 μM; substrates 8aa-Cy5 and 8aa-AF647 0–2 μM; triplicate
[2] = tested on: CC(C)C[C@H](NC(=O)CNC(=O)C=Cc1ccco1)C(N)=O; test: purified protein, by the assay type; conditions: other: enzyme preparation TLP-ste (C288L/N181C)
[3] = target: thermolysin-like protease (TLP-ste) from Geobacillus stearothermophilus, C288L/N181C (Geobacillus stearothermophilus)
[4] = corrected for IFE and FRET efficiency, 1 nM TLP-ste, 20 mM MOPS pH 7.4, 5 mM CaCl2, 10% DMSO, 30 °C, donor λex 490/λem 520 nm
[5] = corrected for IFE and FRET efficiency, 1 nM TLP-ste, 30 °C
[6] = corrected for IFE and FRET efficiency, vmax divided by enzyme concentration (1 nM)
[7] = correction: FRET efficiency only
[8] = correction: FRET efficiency only, vmax divided by enzyme concentration
[9] = correction: IFE only, vmax divided by enzyme concentration
[10] = correction: none, vmax divided by enzyme concentration

KM of hydrolysis by 1 nM TLP-ste (Michaelis-Menten fit, donor fluorescence, corrected for IFE and FRET efficiency; 30 °C, MOPS pH 7.4, 10% DMSO) [3] [μM]	Molecule	Km (TLP-ste (C288L/N181C); [4]) [µM]	vmax (TLP-ste (C288L/N181C); [5])	kcat (TLP-ste (C288L/N181C); [6]) [s^–1]	Km (TLP-ste (C288L/N181C); [7]) [µM]	kcat/KM (TLP-ste (C288L/N181C); [7]) [M⁻¹ s⁻¹]	kcat (TLP-ste (C288L/N181C); [8]) [s⁻¹]	kcat/KM (TLP-ste (C288L/N181C); correction: IFE only) [M⁻¹ s⁻¹]	kcat (TLP-ste (C288L/N181C); [9]) [s⁻¹]	Km (TLP-ste (C288L/N181C); correction: none) [µM]	kcat/KM (TLP-ste (C288L/N181C); correction: none) [M⁻¹ s⁻¹]	kcat (TLP-ste (C288L/N181C); [10]) [s⁻¹]	further results
	CF-PSVAGLAGGC(Cy5)-NH2 [8aa-Cy5]	17.6 ± 11.1	78.2 ± 48.2 ×10^–4 μM s^–1	7.82	8.2 ± 3.9	454900	3.73	426100	7.50	8.2 ± 3.9	436600	3.58	increase of kcat with peptide length (TLP-ste (C288L/N181C)): 21 fold
	CF-PAGLAC(AF674)-NH2 [4aa-AF647]	53.3 ± 33.9	7.0 ± 3.8 ×10^–4 μM s^–1	0.70	14.3 ± 4	14000	0.20	12900	0.69	14.3 ± 4	13200	0.19	
	CF-PVAGLAGC(Cy5)-NH2 [6aa-Cy5]	11.6 ± 13	29.6 ± 26.6 ×10^–4 μM s^–1	2.96	6.9 ± 6.6	271000	1.87	247400	2.87	6.9 ± 6.6	262300	1.81	concentration of hydrolyzed peptide above which fluorescence plateaus or decreases (cleaved products form aggregates) [1]: 2500 nM
	CF-PSVAGLAGGC(AF647)-NH2 [8aa-AF647]	77.6 ± 38.5	57.0 ± 27.0 ×10^–4 μM s^–1	5.70	17 ± 4.6	75900	1.29	70500	5.47	17 ± 4.6	72900	1.24	increase of kcat with peptide length (TLP-ste (C288L/N181C)): 8 fold
	H-LAGGC(AF647)-NH2 [AF647-carrying product]												relative activity of TLP-ste in the presence of product (TLP-ste): relative activity decreases
	TLP-ste (C288L/N181C) (Geobacillus stearothermophilus; C520L/N413C)												Km [2]: 7000 µM; kcat [2]: 14 s^–1
	CF-PAGLAC(Cy5)-NH2 [4aa-Cy5]	2.4 ± 1.9	3.7 ± 1.6 ×10^–4 μM s^–1	0.37	1.6 ± 1.3	175000	0.28	145800	0.35	1.6 ± 1.3	162500	0.26	concentration of hydrolyzed peptide above which fluorescence plateaus or decreases (cleaved products form aggregates) [1]: 2500 nM
77.6	{CF}-PSVAGLAGGC(AF647)-NH2 [8aa-AF647, CF-…(AF647)-NH2]												
2.4	{CF}-PAGLAC(Cy5)-NH2 [4aa-Cy5, CF-PAGLAC(Cy5)-NH2]												
11.6	{CF}-PVAGLAGC(Cy5)-NH2 [6aa-Cy5, CF-PVAGLAGC(Cy5)-NH2]												
53.3	{CF}-PAGLAC(AF647)-NH2 [4aa-AF647, CF-PAGLAC(AF647)-NH2]												
17.6	{CF}-PSVAGLAGGC(Cy5)-NH2 [8aa-Cy5, CF-…(Cy5)-NH2]												
